Measurements from BigSolDB 2.1.

Conditions: in water

## COc1cc(NS(=O)(=O)c2ccc(N)cc2)nc(OC)n1
298.15 K
  solubility (mole fraction): 3.07e-06
303.15 K
  solubility (mole fraction): 3.83e-06
308.15 K
  solubility (mole fraction): 4.78e-06
313.15 K
  solubility (mole fraction): 5.83e-06
318.15 K
  solubility (mole fraction): 7.25e-06
323.15 K
  solubility (mole fraction): 8.76e-06
328.15 K
  solubility (mole fraction): 1.05e-05
333.15 K
  solubility (mole fraction): 1.28e-05

## COc1cnc(NS(=O)(=O)c2ccc(N)cc2)nc1
298.15 K
  solubility (mole fraction): 5.52e-06
303.15 K
  solubility (mole fraction): 7.19e-06
308.15 K
  solubility (mole fraction): 9.26e-06
313.15 K
  solubility (mole fraction): 1.17e-05
318.15 K
  solubility (mole fraction): 1.48e-05
323.15 K
  solubility (mole fraction): 1.88e-05
328.15 K
  solubility (mole fraction): 2.34e-05
333.15 K
  solubility (mole fraction): 2.92e-05

## Nc1ccc(S(=O)(=O)Nc2ncccn2)cc1
298.15 K
  solubility (mole fraction): 4.82e-06
303.15 K
  solubility (mole fraction): 6.2e-06
308.15 K
  solubility (mole fraction): 8.23e-06
313.15 K
  solubility (mole fraction): 1.05e-05
318.15 K
  solubility (mole fraction): 1.33e-05
323.15 K
  solubility (mole fraction): 1.7e-05
328.15 K
  solubility (mole fraction): 2.1e-05
333.15 K
  solubility (mole fraction): 2.62e-05

## Nc1ccc(S(=O)(=O)[N-]c2cncc(Cl)n2)cc1.[Na+]
298.15 K
  solubility (mole fraction): 1.12e-05
303.15 K
  solubility (mole fraction): 1.35e-05
308.15 K
  solubility (mole fraction): 1.59e-05
313.15 K
  solubility (mole fraction): 1.91e-05
318.15 K
  solubility (mole fraction): 2.3e-05
323.15 K
  solubility (mole fraction): 2.75e-05
328.15 K
  solubility (mole fraction): 3.28e-05
333.15 K
  solubility (mole fraction): 3.91e-05

## COc1cc(NS(=O)(=O)c2ccc(N)cc2)ncn1
298.15 K
  solubility (mole fraction): 3.88e-06
303.15 K
  solubility (mole fraction): 4.9e-06
308.15 K
  solubility (mole fraction): 6.13e-06
313.15 K
  solubility (mole fraction): 7.65e-06
318.15 K
  solubility (mole fraction): 9.63e-06
323.15 K
  solubility (mole fraction): 1.17e-05
328.15 K
  solubility (mole fraction): 1.45e-05
333.15 K
  solubility (mole fraction): 1.76e-05
